From patent US6809119B2, “Branched chain amino acid-dependent aminotransferase inhibitors and their use in the treatment of neurodegenerative diseases” (Warner-Lambert Company LLC, priority 2001, dated 2004)
pIC50: −log10 of the molar value.

Tests used:
[1] = molecular target: T1, rat BCAT cytosolic form (rrBCATc) (Rattus norvegicus, UniProt P54690); test: In vitro coupled enzyme assay, rat BCAT cytosolic form; format: biochemical; settings: inhibition of recombinant rat BCATc; coupled glutamate dehydrogenase/NADH assay, 37° C., pH 7.8
T1 construct: inferred from purification on a Ni-charged chelating column with imidazole elution; made in house; host or cells: E. coli BL21(DE3)
T1 sequence (P54690 1-411): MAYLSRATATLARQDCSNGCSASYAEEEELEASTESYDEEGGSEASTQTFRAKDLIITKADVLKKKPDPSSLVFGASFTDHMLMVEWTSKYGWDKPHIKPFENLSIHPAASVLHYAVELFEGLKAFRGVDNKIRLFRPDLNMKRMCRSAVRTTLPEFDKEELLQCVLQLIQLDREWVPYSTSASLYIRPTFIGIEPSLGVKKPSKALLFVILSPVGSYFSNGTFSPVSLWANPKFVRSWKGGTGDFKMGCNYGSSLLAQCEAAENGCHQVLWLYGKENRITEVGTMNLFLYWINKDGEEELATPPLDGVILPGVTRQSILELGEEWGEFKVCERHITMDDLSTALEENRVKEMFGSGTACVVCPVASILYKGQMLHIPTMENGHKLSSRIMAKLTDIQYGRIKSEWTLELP
Protocol: (§1) In vitro enzyme assay: human Branched Chain Amino Acid Aminotransferase cytosolic form (hBCATc) and mitochondrial form (hBCATm) as well as rat BCAT cytosolic form were assayed at 37° C. in 25 mM phosphate buffer pH 7.8. In addition, 2 mM DTT and 12.5 mM EDTA were added to the assay mixture. A coupling enzyme assay was used to monitor the production of glutamate. The formation of NADH from NAD+at […] was followed on a 96-well plate Molecular Devices plate reader. The following components were used in this coupled assay: 4 mM ADP, 1 mM NAD+, 750 μM L-Leucine, 500 μM a-ketoglutarate, 10 μM pyridoxal phosphate, 1 unit glutamate dehydrogenase, and 1.25 μg of the appropriate BCAT enzyme. Inhibitions by compounds were assayed by adding various concentrations to this coupled assay procedure as a DMSO stock up to a 5% v/v DMSO/buffer ratio.
(§2) Enzyme Preparation: humanBCATc and ratBCATc were expressed in BL21(DE3) cells. A growing culture of cells was induced with 1 mM IPTG at room temperature overnight. These cells were harvested by centrifugation at 10,000 g for 20 minutes. The supernatant was discarded, and the cells were stored at −80° C. until needed. The protein was purified by the following method. The cell paste was resuspended in extraction buffer (0.1 M phosphate, pH 8.0, with 0.01 M Tris-HCL and 5 mM TCEP and then lysed on a French Press at 1000 psi. The lysate was centrifuged at 10,000 g for 15 minutes, and the pellet was discarded. The supernatant was loaded onto a Hitrap Chelating column previously charged with 0.1 M NiSO4 and washed with 3 to 4 column volumes of extraction buffer. The column was then washed with 0.01 Tris, pH 7.5, 10% glycerol, 150 mM NaCl, 5 mM TCEP for two column volumes. The column was then further washed with two column volumes of 0.1 M phosphate, pH 6.0, 0.01 M Tris, 10% glycerol, and 750 mM NaCl. Finally, the column was washed with two column volumes of the same buffer plus 50 mM imidazole. The BCAT enzyme was then eluted with the same buffer but with 350 mM imidazole. The eluant was then dialyzed overnight against 10 mM phosphate buffer pH 8.0, 10% glycerol, and 5 mM TCEP. The dialyzed protein was then loaded onto a Q-sepharose column and eluted using a salt gradient. Active fractions were collected and further purified on a Superose-12 column to yield pure BCAT protein.

[2] = molecular target: T2, human Branched Chain Amino Acid Aminotransferase cytosolic form (hBCATc) (Homo sapiens, UniProt P54687); test: In vitro coupled enzyme assay, human BCAT cytosolic form; format: biochemical; settings: inhibition of recombinant human BCATc; coupled glutamate dehydrogenase/NADH assay, 37° C., pH 7.8; read-out: rhBCATc
T2 construct: inferred from purification on a Ni-charged chelating column with imidazole elution; made in house; host or cells: E. coli BL21(DE3)
T2 sequence (P54687 1-386): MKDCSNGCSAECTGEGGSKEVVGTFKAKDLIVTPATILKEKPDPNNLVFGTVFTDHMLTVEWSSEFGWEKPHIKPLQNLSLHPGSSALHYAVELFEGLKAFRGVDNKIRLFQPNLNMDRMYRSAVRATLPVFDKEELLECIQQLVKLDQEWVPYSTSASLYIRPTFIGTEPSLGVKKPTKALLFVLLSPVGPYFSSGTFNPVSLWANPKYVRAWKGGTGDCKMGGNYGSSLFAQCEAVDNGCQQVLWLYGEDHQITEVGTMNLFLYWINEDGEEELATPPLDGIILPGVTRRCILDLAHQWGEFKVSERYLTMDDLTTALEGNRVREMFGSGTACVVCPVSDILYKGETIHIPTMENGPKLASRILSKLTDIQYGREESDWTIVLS
Protocol: as §1, §2

Structure (SMILES) | pIC50 [1] | pIC50 [2] | melting point
O=C(NNS(=O)(=O)c1ccccc1)c1ccc(NCc2ccccc2)cc1 [Example 16, 4-Benzylamino-benzoic acid 2-(phenylsulfonyl)hydrazide] | 5.36 | 4.57 | 214 to 215 °C
CC(C)(C)c1ccc(C(=O)NNS(=O)(=O)c2ccccc2)cc1 [Example 24, 4-(1,1-Dimethylethyl)-benzoic acid, 2-(phenylsulfonyl)hydrazide] | 5.92 | 4.24 | 197 to 199 °C
O=C(NNS(=O)(=O)c1ccccc1)c1ccc(-c2ccccc2)cc1 [Example 25, [1,1′-Biphenyl]-4-carboxylic acid, 2-(phenylsulfonyl)hydrazide] | 5.82 | 4.80 | 216 to 219 °C
O=C(NNS(=O)(=O)c1ccccc1)c1ccc(OCc2ccccc2)cc1 [Example 29] | 4.32 | 4.59 | 159 to 160 °C
O=C(NNS(=O)(=O)c1ccccc1)c1ccc(C#Cc2ccccc2)cc1 [Example 32, 4-Phenacetylenyl-benzoic acid, 2-(phenylsulfonyl)hydrazide] | 5.89 | 4.56 | 175 °C (dec.)
O=C(NNS(=O)(=O)c1ccccc1)c1ccc(CCc2ccccc2)cc1 [Example 33, Phenethyl-benzoic acid, 2-(phenylsulfonyl)hydrazide] | 6.60 | 4.84 | 158 to 159 °C
O=C(NNS(=O)(=O)c1ccccc1)c1ccc(C#CC2(O)CCCCC2)cc1 [Example 35] | 5.66 | 4.36 | 96 to 97 °C
O=C(NNS(=O)(=O)c1ccccc1)c1ccc(CCC2(O)CCCCC2)cc1 [Example 36] | 6.60 | 4.81 | 158 to 159 °C
CC(C)(C)C#Cc1ccc(C(=O)NNS(=O)(=O)c2ccccc2)cc1 [Example 37, 4-(3,3-Dimethyl-1-butynyl)benzoic acid, 2-(phenylsulfonyl)hydrazide] | 5.37 | 4.46 | 160 °C (dec.)
CC(C)(C)CCc1ccc(C(=O)NNS(=O)(=O)c2ccccc2)cc1 [Example 38, 4-(3,3-Dimethyl-1-butyl)-benzoic acid, 2-(phenylsulfonyl)hydrazide] | 6.60 | 5.02 | 168 to 169 °C
